Consider 8 molecules from PubChem BioAssay (NCI).

Some test systems named below: CCRF-CEM leukemia; NCI-H522 lung; OVCAR-3 ovarian; HT29 colon; UACC-62 melanoma; SK-OV-3 ovarian; MCF7 breast; NCI-H23 lung; HS 578T breast; A549 NSCLC.
Holding throughout (assay): growth of human tumour cells (NCI), 48 h

Structures are written as SMILES.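 Following 48 hours of exposure in 96-well plates, responses at five concentrations were used to interpolate endpoints linearly. GI50 is the concentration that inhibits growth by half. TGI is the concentration that stops growth completely.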

Turning to `CCn1ccc(NS(=O)(=O)c2ccc(N)cc2)nc1=O`, the GI50 with CCRF-CEM leukemia, with NCI-H522 lung, in the test with OVCAR-3 ovarian, in the test with HT29 colon, in the test on UACC-62 melanoma and in the test with SK-OV-3 ovarian was more than 100 µM throughout. In addition, the GI50 is more than 100 µM with MCF7 breast, more than 100 µM in the test on NCI-H23 lung, 33.8 µM in the test on HS 578T breast and more than 100 µM with A549 NSCLC. Besides, the TGI in the test on CCRF-CEM leukemia, in the test with NCI-H522 lung, in the test on OVCAR-3 ovarian, with HT29 colon, with UACC-62 melanoma and in the test on SK-OV-3 ovarian was more than 100 µM throughout. The TGI with MCF7 breast, in the test on NCI-H23 lung, with HS 578T breast and with A549 NSCLC was more than 100 µM throughout.

On to `O=C1C=CC2(C=C1)C[C@H](NC(=O)OCc1ccccc1)C(=O)O2`, for which the TGI with CCRF-CEM leukemia is 10 µM; with NCI-H522 lung, 8.53 µM; with OVCAR-3 ovarian it was 30.4 µM; with HT29 colon, 31.9 µM; with UACC-62 melanoma, 31.9 µM; with SK-OV-3 ovarian, more than 92.3 µM. For the same molecule, the TGI was 25.1 µM with MCF7 breast, 32.5 µM in the test with NCI-H23 lung, more than 100 µM with HS 578T breast and more than 78.5 µM in the test on A549 NSCLC.

As for `C[CH2][Sn]([CH2]C)([O]C(=O)c1ccc(OC)c(OC)c1OC)[O]C(=O)c1ccc(OC)c(OC)c1OC`, the GI50 with CCRF-CEM leukemia was 13.9 µM; in the test with NCI-H522 lung, 2.42 µM; in the test on OVCAR-3 ovarian, more than 100 µM; in the test on HT29 colon it was more than 96 µM; in the test on UACC-62 melanoma, 42.6 µM; in the test with SK-OV-3 ovarian, more than 100 µM. Besides, the GI50 in the test on MCF7 breast is 24.7 µM; with NCI-H23 lung, 33 µM; in the test on HS 578T breast, 23.2 µM; in the test with A549 NSCLC, more than 100 µM. Further, the TGI in the test with CCRF-CEM leukemia is 56.8 µM; with NCI-H522 lung, 8.54 µM; in the test with OVCAR-3 ovarian it was more than 100 µM; in the test on HT29 colon, more than 100 µM; in the test with UACC-62 melanoma it was more than 100 µM; in the test with SK-OV-3 ovarian it was more than 100 µM. The TGI with MCF7 breast was 49.2 µM; with NCI-H23 lung, more than 67.1 µM; in the test on HS 578T breast, 88.8 µM; in the test on A549 NSCLC, more than 100 µM.

`C#Cc1cccc(NC(=O)c2ccc(NC(=O)CCl)cc2)c1`: the GI50 in the test on CCRF-CEM leukemia is 7.37 µM; in the test with NCI-H522 lung, 13.5 µM; in the test on OVCAR-3 ovarian it was 12.7 µM; with HT29 colon it was 16 µM; in the test on UACC-62 melanoma, 36.9 µM; in the test on SK-OV-3 ovarian, more than 82.5 µM. Besides, the GI50 is 22.6 µM with MCF7 breast, 14.9 µM in the test with NCI-H23 lung, 27.9 µM with HS 578T breast and more than 82.5 µM with A549 NSCLC. Also, the TGI is 32.4 µM in the test with CCRF-CEM leukemia; 35 µM with NCI-H522 lung; 25.7 µM in the test with OVCAR-3 ovarian; 45.4 µM with HT29 colon; more than 82.5 µM with UACC-62 melanoma; more than 82.5 µM in the test with SK-OV-3 ovarian. The TGI in the test with MCF7 breast is more than 82.5 µM; in the test on NCI-H23 lung, 38.4 µM; with HS 578T breast, more than 82.5 µM; with A549 NSCLC it was more than 82.5 µM.

Take `Cc1ccc(S(=O)(=O)N2CCc3ccc(O)c4c3C2Cc2ccc3c(c2-4)OCO3)cc1` (stereo not given): the GI50 with CCRF-CEM leukemia was 0.847 µM; with NCI-H522 lung, 0.393 µM; in the test with OVCAR-3 ovarian, 0.286 µM; in the test on HT29 colon, 2.79 µM; in the test on UACC-62 melanoma, 0.577 µM; in the test with SK-OV-3 ovarian, 0.731 µM. The GI50 in the test with MCF7 breast was 0.317 µM; in the test with NCI-H23 lung, 0.592 µM; with HS 578T breast, 1.06 µM; with A549 NSCLC it was 0.808 µM. Moreover, the TGI in the test on CCRF-CEM leukemia is more than 27.6 µM; with NCI-H522 lung it was 2.08 µM; in the test on OVCAR-3 ovarian it was 0.707 µM; in the test on HT29 colon, 7.25 µM; in the test on UACC-62 melanoma it was 9.41 µM; in the test with SK-OV-3 ovarian, 8.09 µM. Moreover, the TGI is 10.2 µM in the test on MCF7 breast, 5.25 µM in the test on NCI-H23 lung, more than 50.6 µM with HS 578T breast and 12.4 µM in the test on A549 NSCLC.

Take `CSc1ccc(C(=O)/C=C/c2ccccc2Cl)cc1`: the GI50 with CCRF-CEM leukemia is 19.6 µM; with NCI-H522 lung, 10.9 µM; in the test with OVCAR-3 ovarian it was 8.98 µM; in the test on HT29 colon, 21.2 µM; in the test with UACC-62 melanoma, 15.7 µM; in the test with SK-OV-3 ovarian, 32.3 µM. Moreover, the GI50 is 32.2 µM with MCF7 breast, 15.4 µM in the test with NCI-H23 lung, 21.9 µM in the test on HS 578T breast and 15.1 µM in the test on A549 NSCLC. Moreover, the TGI with CCRF-CEM leukemia is more than 100 µM; with NCI-H522 lung, 33.1 µM; with OVCAR-3 ovarian it was 21.9 µM; with HT29 colon, more than 100 µM; in the test on UACC-62 melanoma it was 33.5 µM; with SK-OV-3 ovarian, more than 100 µM. The TGI was more than 100 µM in the test on MCF7 breast, 32.5 µM in the test with NCI-H23 lung, 55.6 µM in the test with HS 578T breast and 30.5 µM in the test on A549 NSCLC.

As for `[CH3][Sn]([CH3])([CH3])[O][N+](=O)[O-]`, the GI50 in the test on CCRF-CEM leukemia is 2.19 µM; in the test on NCI-H522 lung, 1.64 µM; with OVCAR-3 ovarian, 5.06 µM; in the test with HT29 colon it was 5.8 µM; with UACC-62 melanoma it was 3.91 µM; with SK-OV-3 ovarian, more than 10 µM. In addition, the GI50 in the test on MCF7 breast is 2.87 µM; in the test on NCI-H23 lung, 5.02 µM; in the test on HS 578T breast, 1.73 µM; with A549 NSCLC it was more than 10 µM. The TGI is 6.9 µM with CCRF-CEM leukemia; 3.07 µM with NCI-H522 lung; more than 10 µM with OVCAR-3 ovarian; more than 10 µM with HT29 colon; more than 10 µM with UACC-62 melanoma; more than 10 µM in the test on SK-OV-3 ovarian. For the same molecule, the TGI in the test on MCF7 breast, in the test on NCI-H23 lung, in the test with HS 578T breast and in the test on A549 NSCLC was more than 10 µM in each case.

Turning to `Cc1cc(Cl)cc(Cc2cc(Cl)cc(C)c2O)c1O`, the GI50 is 3.08 µM in the test on CCRF-CEM leukemia; 1.76 µM in the test on NCI-H522 lung; 2.35 µM in the test on OVCAR-3 ovarian; 3.63 µM in the test with HT29 colon; 2.28 µM with UACC-62 melanoma; 3.18 µM in the test on SK-OV-3 ovarian. Besides, the GI50 with MCF7 breast is 2.47 µM; in the test on NCI-H23 lung it was 1.9 µM; with HS 578T breast it was 2.55 µM; in the test with A549 NSCLC, 2.91 µM. Besides, the TGI worked out at 16.1 µM with CCRF-CEM leukemia; 6.65 µM in the test with NCI-H522 lung; 7.83 µM with OVCAR-3 ovarian; 10.7 µM in the test on HT29 colon; 10.6 µM in the test on UACC-62 melanoma; 8.89 µM with SK-OV-3 ovarian. Also, the TGI was 9.66 µM in the test with MCF7 breast, 8.09 µM with NCI-H23 lung, 7.75 µM in the test on HS 578T breast and 11.1 µM with A549 NSCLC.
